From patent US20230083015A1, “SMALL MOLECULE DEGRADERS OF STAT3” (THE REGENTS OF THE UNIVERSITY OF MICHIGAN, priority 2019, published 2023)

Legend:
STAT1 = target: T1, STAT1 (Homo sapiens, UniProt P42224); assay: Estimated DC50 for STAT1 degradation in MOLM-16 cells (immunoblotting); type: cell-based; conditions: MOLM-16, 4 h; read-out: Estimated DC50 STAT1
T1 construct: In vitro cultured cells or xenograft tumors were lysed; endogenous in cells; host or cells: MOLM-16
T1 sequence (P42224 1-750): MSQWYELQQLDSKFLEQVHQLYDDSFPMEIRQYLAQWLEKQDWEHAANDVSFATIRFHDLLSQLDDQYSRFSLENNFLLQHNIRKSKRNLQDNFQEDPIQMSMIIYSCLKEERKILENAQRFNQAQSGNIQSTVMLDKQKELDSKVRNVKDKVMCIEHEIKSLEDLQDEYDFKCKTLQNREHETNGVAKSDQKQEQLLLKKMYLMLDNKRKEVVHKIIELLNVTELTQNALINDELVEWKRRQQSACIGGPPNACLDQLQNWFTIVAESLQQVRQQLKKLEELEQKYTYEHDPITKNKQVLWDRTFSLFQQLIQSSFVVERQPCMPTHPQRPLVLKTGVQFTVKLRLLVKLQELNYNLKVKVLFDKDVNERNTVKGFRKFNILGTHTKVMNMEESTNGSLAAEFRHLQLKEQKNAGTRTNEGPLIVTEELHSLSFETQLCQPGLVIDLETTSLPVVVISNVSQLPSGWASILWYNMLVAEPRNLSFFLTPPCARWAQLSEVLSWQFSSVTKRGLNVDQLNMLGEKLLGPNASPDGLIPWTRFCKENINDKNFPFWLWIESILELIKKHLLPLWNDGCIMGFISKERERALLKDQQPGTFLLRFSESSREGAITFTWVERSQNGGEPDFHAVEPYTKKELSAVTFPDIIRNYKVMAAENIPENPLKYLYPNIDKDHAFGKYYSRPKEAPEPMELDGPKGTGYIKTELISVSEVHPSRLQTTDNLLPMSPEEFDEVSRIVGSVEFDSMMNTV
Description: (§1) FIG. 62 is a series of four images showing the fluorescent immunoblotting analysis of STAT1 and STAT3 protein in Molm-16 cells after treatment for 4 h with Cpd. Nos. 331, 296, 361, 362, 363, 364, 365, 366, and 367 at the concentrations indicated.
(§2) In vitro cultured cells or xenograft tumors were lysed 1× Cell Lysis Buffer (Cell Signaling Technology, #9803), resolved by SDS-PAGE NuPAGE gel (Thermo Fisher Scientific), and transferred to a PVDF membrane (Bio Rad). For chemiluminescence immunoblotting, membranes were blocked for 1 h using 5% Blotting-Grade Blocker (#1706404, Bio Rad) in 1× Tris-buffered saline with Tween 20 (TBST, Pierce). Antibodies used were: rabbit mAbs for STAT3 (Cell Signaling Technology, #4368, #12640) and p-STAT3 (Y705) (Cell Signaling Technology, #9245, #52075). HRP conjugated goat anti-rabbit IgG (H+L) (#A27036) secondary antibodies was from Thermo Fisher Scientific. GAPDH (Santa Cruz Technology, sc-47724HRP) and actin (Santa Cruz Technology, sc-8432HRP, sc-47778HRP) were loading controls. For fluorescent immunoblotting, membranes were blocked using Odyssey TBS Blocker Buffer (LI-COR). IRDye 680RD and 800CW Dye-labeled secondary antibodies (LI-COR) were used. The washed membranes were scanned using Odyssey CLx imager (LI-COR). The intensity of Western blot signaling was quantitated using the Odyssey software.
(§3) The estimated DC50 in MOLM-16 cells of representative Compounds of the Disclosure against STAT3 and STAT1 is provide in Table 5.

STAT3 = STAT3 (Homo sapiens, UniProt P40763); assay: Estimated DC50 for STAT3 degradation in MOLM-16 cells (immunoblotting); type: cell-based; design: In vitro cultured cells or xenograft tumors were lysed; endogenous in cells; host or cells: MOLM-16; conditions: MOLM-16, 4 h; read-out: Estimated DC50 STAT3
Description: as §1, §2, §3

Chain of STAT3 (P40763 whole entry): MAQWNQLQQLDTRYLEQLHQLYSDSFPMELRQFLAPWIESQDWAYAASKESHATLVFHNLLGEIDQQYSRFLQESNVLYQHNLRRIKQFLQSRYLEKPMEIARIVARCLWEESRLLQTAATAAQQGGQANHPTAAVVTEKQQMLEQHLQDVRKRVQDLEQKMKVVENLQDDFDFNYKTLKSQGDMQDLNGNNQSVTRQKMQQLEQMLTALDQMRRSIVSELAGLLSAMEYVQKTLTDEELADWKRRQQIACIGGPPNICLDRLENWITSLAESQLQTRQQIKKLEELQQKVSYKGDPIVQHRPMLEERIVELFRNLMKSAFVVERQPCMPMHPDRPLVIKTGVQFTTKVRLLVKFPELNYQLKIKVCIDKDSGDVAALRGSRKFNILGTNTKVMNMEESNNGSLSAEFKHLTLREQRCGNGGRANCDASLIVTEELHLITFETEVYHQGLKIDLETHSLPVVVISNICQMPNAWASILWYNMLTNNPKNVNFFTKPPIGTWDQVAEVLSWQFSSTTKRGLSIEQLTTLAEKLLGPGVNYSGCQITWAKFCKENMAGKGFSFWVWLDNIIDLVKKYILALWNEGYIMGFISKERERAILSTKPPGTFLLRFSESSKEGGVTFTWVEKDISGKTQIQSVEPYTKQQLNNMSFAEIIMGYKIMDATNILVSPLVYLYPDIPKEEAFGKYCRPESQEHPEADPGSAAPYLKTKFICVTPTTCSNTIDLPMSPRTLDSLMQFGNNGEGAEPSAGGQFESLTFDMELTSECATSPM

| Compound | DC50 (STAT1) | DC50 (STAT3) |
| --- | --- | --- |
| CCN1CC[C@H]2CC[C@@H](C(=O)N[C@@H](CCC(N)=O)C(=O)N[C@@H](Cc3ccc(C(=O)NC4CCOCC4)cc3)C(=O)N3CCC(CCC#Cc4cccc5c4CN(C4CCC(=O)NC4=O)C5=O)CC3)N2C(=O)[C@@H](NC(=O)c2cc3cc(C(F)(F)P(=O)(O)O)ccc3s2)C1 (stereo partly drawn) [Cpd. No. 359, ((2-(((5S,8S,10aR)-8-(((2S)-5-amino-1-(((2S)-1-(4-(4-(2-(2,6-dioxopiperidin-3-yl)-1-oxoisoindolin-4-yl)but-3-yn-1-yl)piperidin-1-yl)-1-oxo-3-(4-((tetrahydro-2H-pyran-4-yl)carbamoyl)phenyl)propan-2-yl)amino)-1,5-dioxopentan-2-yl)carbamoyl)-3-ethyl-6-oxodecahydropyrrolo[1,2-a][1,5]diazocin-5-yl)carbamoyl)benzo[b]thiophen-5-yl)difluoromethyl)phosphonic Acid] | > 1000 nM | 1000 nM |
| CCN1CC[C@H]2CC[C@@H](C(=O)N[C@@H](CCC(N)=O)C(=O)N[C@@H](Cc3ccc(C(=O)NCC4CCN(C)CC4)cc3)C(=O)N3CCC(CCC#Cc4cccc5c4CN(C4CCC(=O)NC4=O)C5=O)CC3)N2C(=O)[C@@H](NC(=O)c2cc3cc(C(F)(F)P(=O)(O)O)ccc3s2)C1 (stereo partly drawn) [Cpd. No. 360, ((2-(((5S,8S,10aR)-8-(((2S)-5-amino-1-(((2S)-1-(4-(4-(2-(2,6-dioxopiperidin-3-yl)-1-oxoisoindolin-4-yl)but-3-yn-1-yl)piperidin-1-yl)-3-(4-(((1-methylpiperidin-4-yl)methyl)carbamoyl)phenyl)-1-oxopropan-2-yl)amino)-1,5-dioxopentan-2-yl)carbamoyl)-3-ethyl-6-oxodecahydropyrrolo [1,2-a][1,5]diazocin-5-yl)carbamoyl)benzo [b]thiophen-5-yl)difluoromethyl) phosphonic acid] | > 1000 nM | > 1000 nM |
| COC(=O)N1CC[C@H]2CC[C@@H](C(=O)N[C@@H](CCC(N)=O)C(=O)N[C@@H](Cc3ccc(C(C)(C)C)cc3)C(=O)N3CCC(CCC#Cc4cccc5c4CN(C4CCC(=O)NC4=O)C5=O)CC3)N2C(=O)[C@@H](NC(=O)c2cc3cc(C(F)(F)P(=O)(O)O)ccc3s2)C1 (stereo partly drawn) [Cpd. No. 361, ((2-(((5S,8S,10aR)-8-(((2S)-5-amino-1-(((2S)-3-(4-(tert-butyl)phenyl)-1-(4-(4-(2-(2,6-dioxopiperidin-3-yl)-1-oxoisoindolin-4-yl)but-3-yn-1-yl)piperidin-1-yl)-1-oxopropan-2-yl)amino)-1,5-dioxopentan-2-yl)carbamoyl)-3-(methoxycarbonyl)-6-oxodecahydropyrrolo[1,2-a][1,5]diazocin-5-yl)carbamoyl)benzo[b]thiophen-5-yl)difluoromethyl) phosphonic acid] | 250 nM | < 250 nM |
| CC(C)(C)c1ccc(C[C@H](NC(=O)[C@H](CCC(N)=O)NC(=O)[C@@H]2CC[C@@H]3CCN(CC(F)F)C[C@H](NC(=O)c4cc5cc(C(F)(F)P(=O)(O)O)ccc5s4)C(=O)N32)C(=O)N2CCC(CCC#Cc3cccc4c3CN(C3CCC(=O)NC3=O)C4=O)CC2)cc1 (stereo partly drawn) [Cpd. No. 362, ((2-(((5S,8S,10aR)-8-(((2S)-5-amino-1-(((2S)-3-(4-(tert-butyl)phenyl)-1-(4-(4-(2-(2,6-dioxopiperidin-3-yl)-1-oxoisoindolin-4-yl)but-3-yn-1-yl)piperidin-1-yl)-1-oxopropan-2-yl)amino)-1,5-dioxopentan-2-yl)carbamoyl)-3-(2,2-difluoroethyl)-6-oxodecahydropyrrolo[1,2-a][1,5]diazocin-5-yl)carbamoyl)benzo[b]thiophen-5-yl)difluoromethyl) phosphonic acid] | < 250 nM | < 250 nM |
| CC(=O)N1CC[C@H]2CC[C@@H](C(=O)N[C@@H](CCC(N)=O)C(=O)N[C@@H](Cc3ccc(C(C)(C)C)cc3)C(=O)N3CCC(CCC#Cc4cccc5c4CN(C4CCC(=O)NC4=O)C5=O)CC3)N2C(=O)[C@@H](NC(=O)c2cc3cc(C(F)(F)P(=O)(O)O)ccc3s2)C1 (stereo partly drawn) [Cpd. No. 363, ((2-(((5S,8S,10aR)-3-acetyl-8-(((2S)-5-amino-1-(((2S)-3-(4-(tert-butyl)phenyl)-1-(4-(4-(2-(2,6-dioxopiperidin-3-yl)-1-oxoisoindolin-4-yl)but-3-yn-1-yl)piperidin-1-yl)-1-oxopropan-2-yl)amino)-1,5-dioxopentan-2-yl)carbamoyl)-6-oxodecahydropyrrolo [1,2-a][1,5]diazocin-5-yl)carbamoyl)benzo[b]thiophen-5-yl)difluoromethyl)phosphonic acid] | < 250 nM | < 250 nM |
| CC(C)N1CC[C@H]2CC[C@@H](C(=O)N[C@@H](CCC(N)=O)C(=O)N[C@@H](Cc3ccc(C(C)(C)C)cc3)C(=O)N3CCC(CCC#Cc4cccc5c4CN(C4CCC(=O)NC4=O)C5=O)CC3)N2C(=O)[C@@H](NC(=O)c2cc3cc(C(F)(F)P(=O)(O)O)ccc3s2)C1 (stereo partly drawn) [Cpd. No. 364, ((2-(((5S,8S,10aR)-8-(((2S)-5-amino-1-(((2S)-3-(4-(tert-butyl)phenyl)-1-(4-(4-(2-(2,6-dioxopiperidin-3-yl)-1-oxoisoindolin-4-yl)but-3-yn-1-yl)piperidin-1-yl)-1-oxopropan-2-yl)amino)-1,5-dioxopentan-2-yl)carbamoyl)-3-isopropyl-6-oxodecahydropyrrolo[1,2-a][1,5]diazocin-5-yl)carbamoyl)benzo[b]thiophen-5-yl)difluoromethyl) phosphonic acid] | < 250 nM | < 250 nM |
| CCN1CC[C@H]2CC[C@@H](C(=O)N[C@@H](CCC(N)=O)C(=O)N[C@@H](Cc3ccc(C(=O)N4CCC(F)(F)CC4)cc3)C(=O)N3CCC(CCC#Cc4cccc5c4CN(C4CCC(=O)NC4=O)C5=O)CC3)N2C(=O)[C@@H](NC(=O)c2cc3cc(C(F)(F)P(=O)(O)O)ccc3s2)C1 (stereo partly drawn) [Cpd. No. 365, ((2-(((5S,8S,10aR)-8-(((2S)-5-amino-1-(((2S)-3-(4-(4,4-difluoropiperidine-1-carbonyl)phenyl)-1-(4-(4-(2-(2,6-dioxopiperidin-3-yl)-1-oxoisoindolin-4-yl)but-3-yn-1-yl)piperidin-1-yl)-1-oxopropan-2-yl)amino)-1,5-dioxopentan-2-yl)carbamoyl)-3-ethyl-6-oxodecahydropyrrolo[1,2-a][1,5]diazocin-5-yl)carbamoyl)benzo[b]thiophen-5-yl)difluoromethyl) phosphonic acid] | < 250 nM | < 250 nM |
| CCN1CC[C@H]2CC[C@@H](C(=O)N[C@@H](CCC(N)=O)C(=O)N[C@@H](Cc3ccc(C(=O)N4CCOCC4)cc3)C(=O)N3CCC(CCC#Cc4cccc5c4CN(C4CCC(=O)NC4=O)C5=O)CC3)N2C(=O)[C@@H](NC(=O)c2cc3cc(C(F)(F)P(=O)(O)O)ccc3s2)C1 (stereo partly drawn) [Cpd. No. 366, ((2-(((5S,8S,10aR)-8-(((2S)-5-amino-1-(((2S)-1-(4-(4-(2-(2,6-dioxopiperidin-3-yl)-1-oxoisoindolin-4-yl)but-3-yn-1-yl)piperidin-1-yl)-3-(4-(morpholine-4-carbonyl)phenyl)-1-oxopropan-2-yl)amino)-1,5-dioxopentan-2-yl)carbamoyl)-3-ethyl-6-oxodecahydropyrrolo[1,2-a][1,5]diazocin-5-yl)carbamoyl)benzo[b]thiophen-5-yl)difluoromethyl) phosphonic acid] | < 250 nM | < 250 nM |
